Measurements taken from patent publication US9040563B2, “Dual inhibitors of farnesyltransferase and geranylgeranyltransferase I” (H. Lee Moffitt Cancer Center and Research Institute, Inc., priority 2010, dated 2015).
Read-outs that look alike come from different tables or passages of the source.

Assays:
hFTase = hFTase (Homo sapiens, UniProt P49354+P49356); test: In vitro hFTase inhibition: incorporation of [3H]FPP into recombinant H-Ras-CVLS; type: biochemical; settings: for selectivity (ratio of GGTase-I to FTase IC50s): GGTase-I IC50 / hFTase IC50
farnesylation of H-Ras = test: Whole cell inhibition of H-Ras processing (farnesylation), immunoblot, oncogenic H-Ras-transformed NIH3T3 cells; type: cell-based, mouse; settings: Mus musculus, NIH3T3, whole cells, oncogenic H-Ras-transformed NIH3T3; n = 3 unless stated; read-out: H-Ras processing IC50
Protocol: (§1) In vitro inhibition assays for FTase and GGTase-I were conducted by measuring the incorporation of [^3H]FPP and [^3H]GGPP into recombinant H-Ras-CVLS and H-Ras-CVLL, respectively, as previously described (Vogt, et al., Protein geranylgeranylation, not farnesylation, is required for the G1 to S phase transition in mouse fibroblasts. Oncogene, 1996, 13, 1991-1999). The in vivo inhibition of farnesylation and geranylgeranylation was determined based on the level of inhibition by synthetic compounds of H-Ras and Rap1A processing, respectively (Sun, et al., Both farnesyltransferase and geranylgeranyltransferase I inhibitors are required for inhibition of oncogenic K-Ras prenylation but each alone is sufficient to suppress human tumor growth in nude mouse xenografts. Oncogene, 1998, 16, 1467-1473). […] The separated proteins were transferred to nitrocellulose and immunoblotted using an anti-Ras antibody (Y13-258) or an anti-Rap1A antibody (SantaCruz Biotechnology, Santa Cruz, Calif.), respectively. Antibody reactions were visualized using either peroxidase-conjugated goat anti-rat IgG or goat anti-rabbit IgG (Jackson ImmunoResearch, West Grove, Pa.) and an enhanced chemiluminescence detection system.
(§2) Briefly, in vitro inhibition assays for hFTase and GGTase-I were carried out by measuring the incorporation of [^3H]FPP and [^3H]GGPP into recombinant H-Ras-CVLS and H-Ras-CVLL, respectively, as described previously (Vogt et al., Protein geranylgeranylation, not farnesylation, is required for G1 to S phase transition in mouse fibroblasts. Oncogene. 1996; 13:1991-1999). Whole cell inhibition of farnesylation and geranylgeranylation were determined based on the level of inhibition by synthetic compounds of H-Ras and Rap1A processing, respectively (Sun, et al., Both farnesyltransferase and geranylgeranyltransferase I inhibitors are required for inhibition of oncogenic K-Ras prenylation but each alone is sufficient to suppress human tumor growth in nude mouse xenografts. Oncogene. 1998; 16:1467-1473).

[1] = tested on: geranylgeranylation of Rap1A; test: Whole cell inhibition of Rap1A processing (geranylgeranylation), immunoblot, oncogenic H-Ras-transformed NIH3T3 cells; type: cell-based, mouse; settings: Mus musculus
Protocol: as §1, §2

[2] = whole cells, oncogenic H-Ras-transformed NIH3T3, n = 3 unless stated, read-out: Rap1A processing IC50

Row | Compound | selectivity (ratio of GGTase-I to FTase IC50s) (hFTase) | IC50 [1, 2] [µM] | further results
1 | 4-[{2-[Benzyl-(1-methyl-1H-imidazole-4-sulfonyl)-amino]-ethyl}-(1-methyl-1H-imidazol-4-ylmethyl)-amino]-benzamide [compound 13] | >2 |  | 
2 | C#CCN(CCN(Cc1cncn1C)c1ccc(C#N)cc1)S(=O)(=O)c1cn(C)cn1 [1aa] | >14 | > 10 | IC50 (farnesylation of H-Ras): 6 µM
3 | C=C(C)CN(CCN(Cc1cncn1C)c1ccc(C#N)cc1)S(=O)(=O)c1cn(C)cn1 [1ac] | 5.3 | > 10 | GGTase-I/FTase selectivity (hFTase; selectivity for hFTase over GGTase-I): about 5 fold; IC50 (farnesylation of H-Ras): > 10 µM
4 | C=C(Br)CN(CCN(Cc1cncn1C)c1ccc(C#N)cc1)S(=O)(=O)c1cn(C)cn1 [1ad] | 31 | > 10 | IC50 (farnesylation of H-Ras): 5.7 ± 1.5 µM
5 | Cc1ccc(CN(CCN(Cc2cncn2C)c2ccc(C#N)cc2)S(=O)(=O)c2cn(C)cn2)cc1 [1aq] |  |  | IC50 ([1]; NIH3T3, read-out: Rap1A processing IC50): > 10 µM
6 | Cn1cnc(S(=O)(=O)N(CCN(Cc2cncn2C)c2ccc(C#N)cc2Cl)CC2CCN(c3ncccn3)CC2)c1 [19a, [N-{2-[(2-Chloro-4-cyanophenyl)-(3-methyl-3H-imidazol-4-ylmethyl)-amino]-ethyl}, N-{N-(2-pyrimidinyl)-piperidin-4-ylmethyl}]1-methyl-1H-imidazole-4-sulfonamide] | >18 |  | 
7 | Cn1cnc(S(=O)(=O)N(CCN(Cc2cncn2C)c2ccc(C#N)nc2)CC2CCN(c3ncccn3)CC2)c1 [19b] | >19 |  | 
8 | Cn1cnc(S(=O)(=O)N(CCN(Cc2cncn2C)c2ccc(C#N)cn2)CC2CCN(c3ncccn3)CC2)c1 [19c, [N-{2-[(5-Cyanopyridin-2-yl)-(3-methyl-3H-imidazol-4-ylmethyl)-amino]-ethyl}, N-{N-(2-pyrimidinyl)-piperidin-4-ylmethyl}]1-methyl-1H-imidazole-4-sulfonamide] | >91 |  | 
9 | Cn1cnc(S(=O)(=O)N(CCN(Cc2cncn2C)c2ncc(C#N)cn2)CC2CCN(c3ncccn3)CC2)c1 [19d, [N-{2-[(5-Cyanopyrimidin-2-yl)-(3-methyl-3H-imidazol-4-ylmethyl)-amino]-ethyl}, N-{N-(2-pyrimidinyl)-piperidin-4-ylmethyl}]1-methyl-1H-imidazole-4-sulfonamide] | >16 |  | 
10 | Cn1cnc(S(=O)(=O)N(CCN(Cc2cncn2C)c2ccc(C#N)c(F)c2)CC2CCN(c3ncccn3)CC2)c1 [19e, [N-{2-[(3-Fluoro-4-cyanophenyl)-(3-methyl-3H-imidazol-4-ylmethyl)-amino]-ethyl}, N-{N-(2-pyrimidinyl)-piperidin-4-ylmethyl}]1-methyl-1H-imidazole-4-sulfonamide] | 41 |  | 
11 | Cn1cnc(S(=O)(=O)N(CCN(Cc2cncn2C)c2c(F)cc(C#N)cc2F)CC2CCN(c3ncccn3)CC2)c1 [19g, [N-{2-[(2,6-Difluoro-4-cyanophenyl)-(3-methyl-3H-imidazol-4-ylmethyl)-amino]-ethyl}, N-{N-(2-pyrimidinyl)-piperidin-4-ylmethyl}]1-methyl-1H-imidazole-4-sulfonamide] | >34 |  | 
12 | Cn1cnc(S(=O)(=O)N(CCN(Cc2cncn2C)c2c(F)c(F)c(C#N)c(F)c2F)CC2CCN(c3ncccn3)CC2)c1 [19h, [N-{2-[(2,3,5,6-Tetrafluoro-4-cyanophenyl)-(3-methyl-3H-imidazol-4-ylmethyl)-amino]-ethyl}, N-{N-(2-pyrimidinyl)-piperidin-4-ylmethyl}]1-methyl-1H-imidazole-4-sulfonamide] | 18 |  | 
13 | Cn1cnc(S(=O)(=O)N(CCN(Cc2cncn2C)c2ccc(C#N)cc2F)CC2CCN(c3ncccn3)CC2)c1 [compound 19f, [N-{2-[(2-Fluoro-4-cyanophenyl)-(3-methyl-3H-imidazol-4-ylmethyl)-amino]-ethyl}, N-{N-(2-pyrimidinyl)-piperidin-4-ylmethyl}]1-methyl-1H-imidazole-4-sulfonamide] | >156 |  | 

The next lines start with results.

Row | selectivity (ratio of GGTase-I to FTase IC50s) (hFTase) | IC50 [1, 2] [µM] | Compound | further results
14 | >14 | > 10 | C=CCN(CCN(Cc1cncn1C)c1ccc(C#N)cc1)S(=O)(=O)c1cn(C)cn1 [1ab] | 
15 | 2.6 | > 10 | Cn1cnc(S(=O)(=O)N(CCN(Cc2cncn2C)c2ccc(C#N)cc2)Cc2cccs2)c1 [1ak, [N-(Thiophen-2-ylmethyl), N-{2-[(4-cyanophenyl)-(3-methyl-3H-imidazol-4-ylmethyl)-amino]-ethyl}]1-methyl-1H-imidazole-4-sulfonamide] | 
16 | 15 | > 10 | Cc1ccccc1CN(CCN(Cc1cncn1C)c1ccc(C#N)cc1)S(=O)(=O)c1cn(C)cn1 [1ao] | 
17 | 12 | > 10 | Cc1cccc(CN(CCN(Cc2cncn2C)c2ccc(C#N)cc2)S(=O)(=O)c2cn(C)cn2)c1 [1ap] | 
18 |  | > 10 | Cn1cnc(S(=O)(=O)N(CCN(Cc2cncn2C)c2ccc(C#N)cc2)Cc2cccc(C#N)c2)c1 [1ar] | 
19 | 2.4 | > 10 | Cn1cnc(S(=O)(=O)N(CCN(Cc2cncn2C)c2ccc(C#N)cc2)Cc2cccc(-c3ccccc3)c2)c1 [1at] | 
20 | 4.3 | > 10 | Cn1cnc(S(=O)(=O)N(CCN(Cc2cncn2C)c2ccc(C#N)cc2)Cc2ccc(-c3ccccc3)cc2)c1 [1au] | 
21 | 15 | > 10 | Cn1cnc(S(=O)(=O)N(CCN(Cc2cncn2C)c2ccc(C#N)cc2)Cc2ccc(-n3cccc3)cc2)c1 [1av] | 
22 | 7.6 | > 10 | Cn1cncc1CN(CCN(Cc1ccccc1)S(=O)(=O)c1ccccc1)c1ccc(C#N)cc1 [1d] | 
23 | 11 |  | Cn1cnc(S(=O)(=O)N(CCCN(Cc2cncn2C)c2ccc(C#N)cc2)Cc2ccccc2)c1 [20a] | 
24 | >10 |  | Cn1cnc(S(=O)(=O)N(Cc2ccccc2)[C@@H]2CCC[C@@H]2N(Cc2cncn2C)c2ccc(C#N)cc2)c1 [20b] | 
25 | >15 |  | Cn1cnc(S(=O)(=O)N(Cc2ccccc2)[C@H]2CC[C@@H](N(Cc3cncn3C)c3ccc(C#N)cc3)C2)c1 [20d] | 
26 |  | > 10 | Cn1cnc(S(=O)(=O)N(CCN(Cc2cncn2C)c2ccc(C#N)cc2)Cc2ccccc2)c1 [compound 1a] | IC50 (farnesylation of H-Ras): 1.9 ± 1.2 µM
27 | 14 | > 10 | Cn1cnc(S(=O)(=O)N(CCN(Cc2cncn2C)c2ccc(C#N)cc2)Cc2ccsc2)c1 [compound 1ai, [N-(Thiophen-3-ylmethyl), N-{2-[(4-cyanophenyl)-(3-methyl-3H-imidazol-4-ylmethyl)-amino]-ethyl}]1-methyl-1H-imidazole-4-sulfonamide] | 
28 | 15 | > 10 | Cn1cnc(S(=O)(=O)N(CCN(Cc2cncn2C)c2ccc(C#N)cc2)Cc2ccco2)c1 [compound 1aj, [N-(Furan-2-ylmethyl), N-{2-[(4-cyanophenyl)-(3-methyl-3H-imidazol-4-ylmethyl)-amino]-ethyl}]1-methyl-1H-imidazole-4-sulfonamide] | 
29 |  | > 10 | Cn1cncc1CN(CCN(Cc1ccccc1)S(=O)(=O)c1ccccn1)c1ccc(C#N)cc1 [compound 1f] | IC50 (farnesylation of H-Ras): 0.09 ± 0.06 µM
30 | 1.6 | > 10 | Cn1cnc(S(=O)(=O)N(CCN(Cc2cnc[nH]2)c2ccccc2)Cc2ccccc2)c1 [compound 3] | IC50 (hFTase; in vitro, average of three independent assays (n = 3) unless stated, errors are standard deviations): 6.3 ± 0.36 µM
31 | 0.9 |  | Cn1cnc(S(=O)(=O)N(CCN(Cc2cncn2C)c2ccc(C(=O)OC(C)(C)C)cc2)Cc2ccccc2)c1 [compound 11, tert-Butyl 4-[{2-[benzyl-(1-methyl-1H-imidazole-4-sulfonyl)-amino]-ethyl}-(3-methyl-3H-imidazol-4-ylmethyl)-amino]-benzoate] | 
32 | 48 |  | Cn1cnc(S(=O)(=O)N(CCN(Cc2cncn2C)c2ccc(C(=O)O)cc2)Cc2ccccc2)c1 [compound 12, 4-[{2-[Benzyl-(1-methyl-1H-imidazole-4-sulfonyl)-amino]-ethyl}-(3-methyl-3H-imidazol-4-ylmethyl)-amino]-benzoic acid] | 
33 | 0.7 |  | Cn1cnc(S(=O)(=O)N(CCN(Cc2cncn2C)c2ccc(-c3ccccc3)cc2)Cc2ccccc2)c1 [compound 14, [N-Benzyl, N-{2-[(biphenyl-4-yl)-(3-methyl-3H-imidazol-4-ylmethyl)-amino]-ethyl}]1-methyl-1H-imidazole-4-sulfonamide] | 
